Data reported in patent US11266710B2, “Angio-3 for treatment of retinal angiogenic diseases” (SINGAPORE HEALTH SERVICES PTE LTD, priority 2017, dated 2022).
Where no end group is shown, it is not given here. [ ]: non-standard residue; d: D form. hArg = N=C(N)NCCCC[C@H](N)C(=O)O

What was measured:
[1] = test system: corneal neovascularization after alkali-burn injury in mice; assay: Corneal neovascularization after alkali-burn injury in mice; type: in vivo, mouse; conditions: 1% solution topically 3×/day for 7 days; vs vehicle control
Experimental: Mice were anesthetized with the combination of 80 mg/kg ketamine and 5 mg/kg xylazine. One drop of 1% xylocaine was applied to the corneal surface for local analgesia. Round piece of filter paper, approximately 2 mm in diameter was soaked in a solution of 1 M NaOH. A piece of NaOH soaked filter paper was picked by sterile forceps. NAOH soaked filter paper was placed on the central cornea under microscope to ensure properly placing the filter paper. Left it for 30 sec to generate an acute alkali-burn of approximately 2×2 mm^2 in area. Filter paper was removed and then gently flushed the eye with 10 ml of 1×PBS twice to wash away residual 1 M NaOH. Only one eye of the mouse was injured and the other serving as a control. A drop of 1× Peptide Q (1% solution as test compound) or a vehicle control consisting of PBS was topically applied to the cornea. Repeated application occurred 3×/day for 7 days. At end point, clinical assessment was done as stated below and eyes were enucleated for corneal flat mount.
A daily examination of the mice in a blinded fashion was performed under a surgical microscope and score corneal neo-vascularization (NV) was based on corneal opacity, NV and vessel size. Two observers were scored and record a final score that was the average of the two. Score corneal opacity on a scale of 0-4. […]

[2] = test system: laser-induced CNV in C57/BL6J (B6J) wild type mice; assay: Laser-induced choroidal neovascularization (CNV) model in mice, area of leakage by FFA; type: in vivo; conditions: for Area of Leakage (mean) Week 1 / Area of Leakage (mean) Week 4: laser-induced CNV mice; for Area of Leakage (mean) Week 1 / Area of Leakage (mean) Week 4 / choroidal angiogenesis: prevention mode; for % Reduction (area of leakage): vehicle control = 0%; for choroidal angiogenesis: B6J mice, single intravitreal injection at dose 100 ng, 1 g, and 5 μg
Experimental: FIG. 3A is a schematic of the experimental design on the efficacy of Angio-3 in a laser-induced choroidal neovascularization (CNV) model in mice (B6J WT mice). FIG. 3B are FFA images of baseline and at different time points post treatment. IV single injection of 100 μL of Angio-3 (25 mg/Kg Bwt) was given at Day 0 (prevention mode) and 4 days after laser (regression mode) and followed for 10 weeks. FIG. 3C is a graph showing the area of leakage by each eye for various groups. FIG. 3D are graphs of the mean area of leakage of all batches for each group. […] The attenuation retinal vascularization was better than scrambled peptide. n=6 eyes per batch; n=3 batches. Values are expressed as means±s.e.m., **P<0.01, *P<0.05, student's t-test. FIG. 3E is a graph of the result of the Retinal Function Test that measures ERG changes in Angio-3 treated and control.
FIG. 4A is a schematic of the experimental design on the efficacy of Angio-3 by IVT administration. […]
FIG. 11 A are FFA images of baseline and at different time points post treatment. Mice received single IVT injection of Angio-3 (at a dose of 1 μg in 1 μl or 100 ng in 1 μl), and chemically modified Angio-3 peptides Pep-N (at doses of 5 μg in μl; 1 μg in μl; and 100 ng in 1 μl, respectively) and Pep-Q peptides (at doses of 5 μg in μl; 1 μg in μl; and 100 ng in 1 μl, respectively). FIG. 11 B is a graph of the area of leakage by each eye. Single dose attenuates retinal angiogenesis in laser-induced mice CNV model via IVT route till 4 weeks. […] Eylea is the positive control. n=18 eyes per group; Values are expressed as means±s.e.m. n=3 independent experiment, **P<0.01, *P<0.05, student's t-test.
Laser induced choridal neo-vascularization (CNV) in C57/BL6J (B6J) wild type mice (n=90).
In B6J mice, single injection of 100 μl volume at 25 mg/kg Bwt concentration Angio-3 was injected via intravenous (i/v) route and this was tested in both Preventive mode (before laser) and Regression mode (4 days after laser). […]
Angio-3 was also injected via intravitreal (IVT) route, single injection of 1 μl volume at 2 different doses; 1 μg (High dose) and 100 ng (Low dose).
4 laser photocoagulation sites were placed concentrically around the optic disc of both eyes to induce CNVs. A diode laser (810 nm) was used with a relative potency scale of 120 mW for mice and 250 mW for rats, an exposure time of 0.05 s, and a spot size of […]. Laser spots were focused with crystal covers to avoid laser beam dispersion. Bubble formation was confirmed the rupture of Bruch's membrane.
Fundus photography and fundus fluorescein angiography (FFA) was imaged using a MICRON IV fundus camera (Phoenix Laboratories USA). For FFA, animals were intraperitoneally injected with 10% sodium fluorescein at a dose of 0.01 ml per 5-6 gm body weight.
In B6J mice, single intravitreous (IVT) injection of 100 ng, 1 μg, 5 μg PEP-Q, PEP-N (modified Angio-3), Angio-3 and Eylea were executed and this was tested in Prevention mode (before laser) Method of Llser induced CNV model and injection was described as above.

[3] = test system: laser-induced CNV in Cynomolgus monkeys; assay: Laser-induced CNV model in Cynomolgus monkeys (wet AMD model); type: in vivo, Cynomolgus monkey; conditions: 2 mg Angio-3, 2 mg and 4 mg PeptideQ, 2 mg Eylea, single IVT
Experimental: FIGS. 25A, 25B, 25C, 25D, 25E, and 25F show the results of testing in a laser-induced chorodial neovascularization (CNV) model in Cynomolgus moneys developed as an experimental model of wet AMD. FIG. 25A is a schematic of the study design. FIG. 25B are representative fundus fluorescein angiography (FFA) images of all groups. FIG. 25C is a graph showing change in mean lesion grade of the eye in monkeys treated with a single dose 2 mg of Angio-3, dose 2 mg of anti-VEGF (Eylea), 2 mg of peptide (Q2) and 4 mg of peptide (Q4) and control. […] FIG. 25E is a graph of laser area quantified from the FFA images by ImageJ software. FIG. 25F are graphs of laser volume quantified from PS-OCT images by ImageJ software.
A laser-induced choroidal neovascularization (CNV) model was developed and validated in Cynomolgus monkeys as experimental model of wet AMD. […] The development of active CNV was assessed by fluorescein angiography, at Day 14 the baseline degree of neovascularization and leakiness were measured and the final fluorescein angiography assessment was performed on Day 28. Leakage area was quantified by ImageJ software. The laser volume was quantified by Spectralis-Heidelberg software using SD-OCT images.

HRMEC cells [4] = assay: HRMEC transwell migration assay; type: cell-based; conditions: 300 μg/ml; 50 ng/ml VEGF165; overnight
Experimental: Transwell migration assays were performed in a 24-well cells culture plate containing 8.0 μm pore size inserts. HRMEC cells were serum starved overnight prior of assay. The lower chamber were filled with EBM-2, EBM-2 supplemented with 50 ng/ml VEGF165 plus different concentrations of inhibitors. 1×10^5 Cells in EBM-2 were seeded in the upper chamber. Cells were allowed to migrate to the other side of membrane for overnight at 37° C. Cells on top of the membrane were wiped off and cells migrated to the other side were fixed and stained with 0.4% crystal violet. Cell numbers were counted under a 10× objective for 5 randomly selected fields.

HRMEC cells [5] = assay: VEGF induced proliferation of HRMEC cells (Alamar-Blue); type: cell-based; conditions: 300 μg/ml; 10 ng/ml or 50 ng/ml VEGF165; 3 days
Experimental: 2000 HRMEC cells were seeded in 96-well plates in 100 μl of media and placed in a CO2 incubator at 37° C. To evaluate the effect the compounds have on VEGF-induced HRMEC proliferation, cells were treated with 10 ng/ml VEGF165 or 50 ng/ml VEGF165 in the presence of different concentrations of Angio-3 after serum starved in EBM-2 supplemented with 0.5% FBS overnight. 300 μg/ml Avastin was used as a positive control. Alamar-Blue assay was performed after 3 days of treatment.

Substance	corneal NV area seven days after alkali-burn injury [1]	Area of Leakage (mean) Week 1 ([2]; 100 ng single IVT)	Area of Leakage (mean) Week 4 ([2]; 100 ng single IVT)	% Reduction (area of leakage) ([2]; 100 ng single IVT) [%]	Area of Leakage (mean) Week 1 ([2]; 1 μg single IVT)	Area of Leakage (mean) Week 4 ([2]; 1 μg single IVT)	% Reduction (area of leakage) ([2]; 1 μg single IVT) [%]	Area of Leakage (mean) Week 1 ([2]; 5 μg single IVT)	Area of Leakage (mean) Week 4 ([2]; 5 μg single IVT)	% Reduction (area of leakage) ([2]; 5 μg single IVT) [%]	choroidal angiogenesis [2]	comparative efficacy between treatment groups [3]	VEGF induced HRMEC migration (HRMEC cells [4])	VEGF induced HRMEC proliferation (HRMEC cells [5])
Thr Pro His Thr His Gln Xaa Thr Pro Glu, wherein Xaa is homoarginine (TPHTHQ[hArg]TPE) [PEP-Q, chemically modified Angio-3 peptide]	significantly reduced corneal NV area	9987.09	1283.52	48.96	13444.14	1271.30	52.36	12839.27	742.03	56.04	significantly attenuates the choroidal angiogenesis	dose dependent efficacy and higher dose efficacy close to Eylea	–	–
Thr Pro His Thr His Asn Xaa Thr Pro Glu, wherein Xaa is homoarginine (TPHTHN[hArg]TPE) [PEP-N, chemically modified Angio-3 peptide]	–	11287.40	2237.13	42.00	12808.95	2402.54	43.06	8251.43	749.71	52.73	significantly attenuates the choroidal angiogenesis	–	–	–
bevacizumab [Avastin]	–	–	–	–	–	–	–	–	–	–	–	–	completely blocked	sufficient to inhibit VEGF induce proliferation
